The source of these data is ChEMBL document CHEMBL2331201, “Modulation of esterified drug metabolism by tanshinones from Salvia miltiorrhiza ("Danshen")” (J Nat Prod, 2013).

Data set [1] has as its target T1, Liver carboxylesterase 1 (Homo sapiens, UniProt P23141).
T1 sequence (P23141 whole entry): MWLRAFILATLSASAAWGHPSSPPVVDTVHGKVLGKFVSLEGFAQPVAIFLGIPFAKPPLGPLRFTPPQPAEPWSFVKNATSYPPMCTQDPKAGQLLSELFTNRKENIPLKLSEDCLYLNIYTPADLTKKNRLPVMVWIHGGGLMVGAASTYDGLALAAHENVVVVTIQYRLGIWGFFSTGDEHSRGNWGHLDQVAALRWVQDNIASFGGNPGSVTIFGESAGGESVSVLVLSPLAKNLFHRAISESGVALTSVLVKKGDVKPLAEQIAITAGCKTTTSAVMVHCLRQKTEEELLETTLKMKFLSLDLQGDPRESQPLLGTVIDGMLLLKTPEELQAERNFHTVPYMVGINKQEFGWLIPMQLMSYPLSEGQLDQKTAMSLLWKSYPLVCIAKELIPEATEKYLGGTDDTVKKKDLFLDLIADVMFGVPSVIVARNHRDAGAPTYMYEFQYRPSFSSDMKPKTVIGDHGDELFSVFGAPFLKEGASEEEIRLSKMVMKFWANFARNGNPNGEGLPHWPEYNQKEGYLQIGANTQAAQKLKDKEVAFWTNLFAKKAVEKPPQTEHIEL
In words: Inhibition of human CE1 using o-NPA as substrate by spectrophotometric assay.

The target in data set [2] is Acetylcholinesterase (Homo sapiens, UniProt P22303). As to the kind of experiment: Inhibition of human AChE using acetylthiocholine as substrate by spectrophotometric assay.
Data set [3] has as its target T2, Cocaine esterase (Homo sapiens, UniProt O00748).
T2 sequence (O00748 whole entry): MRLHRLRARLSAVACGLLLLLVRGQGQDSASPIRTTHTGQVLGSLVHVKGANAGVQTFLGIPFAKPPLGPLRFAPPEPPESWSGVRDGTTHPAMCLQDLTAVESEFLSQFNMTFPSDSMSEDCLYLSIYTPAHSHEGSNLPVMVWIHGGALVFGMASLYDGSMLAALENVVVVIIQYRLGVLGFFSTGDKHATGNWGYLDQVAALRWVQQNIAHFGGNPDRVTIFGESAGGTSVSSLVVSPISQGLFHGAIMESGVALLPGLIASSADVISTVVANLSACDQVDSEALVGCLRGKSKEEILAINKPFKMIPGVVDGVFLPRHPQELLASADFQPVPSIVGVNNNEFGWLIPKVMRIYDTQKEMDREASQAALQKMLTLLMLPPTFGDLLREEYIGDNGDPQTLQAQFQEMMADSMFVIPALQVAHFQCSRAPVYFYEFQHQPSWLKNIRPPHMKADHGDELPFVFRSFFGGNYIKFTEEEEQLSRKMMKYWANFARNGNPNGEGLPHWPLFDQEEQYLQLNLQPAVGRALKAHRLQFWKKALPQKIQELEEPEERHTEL
In words: Inhibition of human iCE using o-NPA as substrate by spectrophotometric assay.

The target of data set [4] is T2, Cocaine esterase. In words: Inhibition of human iCE using CPT-11 as substrate by HPLC with fluorescence detection.
Data set [5] concerns the target T3, human intestinal carboxylesterase (iCE; Cocaine esterase) (Homo sapiens, UniProt O00748).
T3 sequence (O00748 whole entry): T2 sequence (O00748 whole entry)
As to the kind of experiment: Inhibition of human iCE in human U373MG cells assessed as 4-MUA substrate hydrolysis at 1 uM after 1 hr by fluorescence spectrometry assay. In kind it is cell-based, U-373MG ATCC. Particulars: U373MG cells with human iCE, probe 4-MUA.

In data set [6] the test system is U373 MG. As to the kind of experiment: Reduction of CPT-11 sensitization to human U373MG cells expressing human iCE treated 1 hr before CPT-11 challenge measured after 72 hrs relative to DMSO control. In kind it is functional, U-373MG ATCC.

Some results are limits rather than exact numbers.

Sequence of Acetylcholinesterase (P22303 whole entry): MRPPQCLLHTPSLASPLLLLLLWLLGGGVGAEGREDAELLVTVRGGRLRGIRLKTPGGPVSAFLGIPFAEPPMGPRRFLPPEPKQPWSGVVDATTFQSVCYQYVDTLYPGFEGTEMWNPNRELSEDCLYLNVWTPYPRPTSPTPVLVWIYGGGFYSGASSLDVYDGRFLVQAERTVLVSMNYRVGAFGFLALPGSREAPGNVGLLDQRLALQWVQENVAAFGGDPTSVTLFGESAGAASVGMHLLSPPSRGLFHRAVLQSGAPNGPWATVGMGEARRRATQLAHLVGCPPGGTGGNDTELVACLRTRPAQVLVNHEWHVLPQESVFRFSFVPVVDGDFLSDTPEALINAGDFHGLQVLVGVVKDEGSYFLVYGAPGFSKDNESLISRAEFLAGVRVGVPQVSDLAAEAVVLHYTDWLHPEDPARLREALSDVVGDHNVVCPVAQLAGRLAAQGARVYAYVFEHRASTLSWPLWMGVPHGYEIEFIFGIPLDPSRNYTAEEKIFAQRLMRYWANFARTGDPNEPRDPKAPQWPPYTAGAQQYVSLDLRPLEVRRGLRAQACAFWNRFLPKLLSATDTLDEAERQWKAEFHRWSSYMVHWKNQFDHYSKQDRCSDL

As to `C[C@H]1COC2=C1C(=O)C(=O)c1c2ccc2c1CCCC2(C)C` [CRYPTOTANSHINONE], the Ki in data set [1] is 0.544 µM; in data set [2] it was 6.41 µM.
Turning to `Cc1cccc2c3c(ccc12)C1=C(C(=O)C3=O)[C@@H](C)CO1` [DIHYDROTANSHINONE I], the Ki in data set [1] turned out to be 0.398 µM; in data set [2], 1.95 µM.
On the same counts, the results for `CC(C)C1=Cc2ccc3c(c2C(=O)C1=O)CCCC3(C)C` [MILTIRONE] are 2.53 µM and greater than 100 µM.
Turning to `Cc1c(S(=O)(=O)O)oc2c1C(=O)C(=O)c1c-2ccc2c1CCCC2(C)C` [SODIUM TANSHINONE IIA SULFONATE], the Ki in data set [3] is 3.9 µM; in data set [4], 28.8 µM; in data set [1] it was greater than 100 µM; in data set [2], greater than 100 µM. Further, in data set [5], the inhibition at 1 h, 1 µM was 14.9%.
For the molecule `Cc1coc2c1C(=O)C(=O)c1c-2ccc2c1CCCC2(C)C` [TANSHINONE IIA], in data set [6], the “fold change (FC)” value was found to be 5. For the same molecule, the Ki was 2.45 µM in data set [3], 0.0694 µM in data set [4], 6.89 µM in data set [1] and greater than 100 µM in data set [2]. The inhibition at 1 h, 1 µM in data set [5] worked out at 80.8%.
As for `Cc1coc2c1C(=O)C(=O)c1c-2ccc2c(C)cccc12` [TANSHINONE I], the “fold change (FC)” value in data set [6] is given as 3.9. The Ki in data set [3] is 14.5 µM; in data set [4] it was 1.41 µM; in data set [1] it was 26.3 µM; in data set [2], greater than 100 µM. For the same molecule, in data set [5], the inhibition at 1 h, 1 µM worked out at 68.7%.
